Consider three compounds from patent US7608577B2, “Peptidyl ketones as inhibitors of DPIV” (OSI Pharmaceuticals, Inc., priority 2001, dated 2009).

By IC50 is commonly meant the concentration at which inhibition is half-maximal.

One experiment addresses T1, plasma DPIV activity (Rattus norvegicus, UniProt P14740).
T1 construct: from tissue; host or cells: plasma of Wistar rats
Kind of experiment: DPIV inhibiting activity after intravasal and oral administration to Wistar rats. The experiment is classed as in vivo. To be noted: 100 mg/kg; for In vivo DPIV-inhibition at tmax, i.v.: intra-vasal (intra-arterial); for In vivo DPIV-inhibition at tmax, p.o.: oral. The procedure: Male Wistar rats (Shoe: Wist(Sho)) with a body weight ranging between 250 and 350 g were purchased from Tierzucht Schönwalde (Schönwalde, Germany).
Animals were single-caged under conventional conditions with controlled temperature (22±2° C.) on a 12/12 hours light/dark cycle (light on at 06:00 AM). Standard pelleted chow (ssniff® Soest, Germany) and tap water acidified with HCl were allowed ad libitum.
After ≧one week of adaptation at the housing conditions, catheters were implanted into the carotid artery of Wistar rats under general anaesthesia (i.p. injection of 0.25 ml/kg b.w. ROMPUN® [2%], BayerVital, Germany and 0.5 ml/kg b.w. Ketamin 10, Atarost GmbH & Co., Twistringen, Germany). The animals were allowed to recover for one week. The catheters were flushed with heparin-saline (100 IU/ml) three times per week. In case of catheter dysfunction, a second catheter was inserted into the contralateral carotid artery of the respective rat. After one week of recovery from surgery, this animal was reintegrated into the study. In case of dysfunction of the second catheter, the animal was withdrawn from the study. A new animal was recruited and the experiments were continued in the planned sequence, beginning at least 7 days after catheter implantation.
Rats with intact catheter function were administered placebo (1 ml saline, 0.154 mol/l) or test compound via the oral and the intra-vasal (intra-arterial) route. After overnight fasting, 100 μl samples of heparinised arterial blood were collected at −30, −5, and 0 min. The test substance was dissolved freshly in 1.0 ml saline (0.154 mol/l) and was administered at 0 min either orally via a feeding tube (75 mm; Fine Science Tools, Heidelberg, Germany) or via the intra-vasal route. In the case of oral administration, an additional volume of 1 ml saline was injected into the arterial catheter. In the case of intra-arterial administration, the catheter was immediately flushed with 30 μl saline and an additional 1 ml of saline was given orally via the feeding tube.
After application of placebo or the test substances, arterial blood samples were taken at 2.5, 5, 7.5, 10, 15, 20, 40, 60 and 120 min from the carotid catheter of the conscious unrestrained rats. All blood samples were collected into ice cooled Eppendorf tubes (Eppendorf-Netheler-Hinz, Hamburg, Germany) filled with 10 μl 1M sodium citrate buffer (pH 3.0) for plasma DPIV activity measurement. Eppendorf tubes were centrifuged immediately (12000 rpm for 2 min, Hettich Zentrifuge EBA 12, Tuttlingen; Germany): The plasma fractions were stored on ice until analysis or were frozen at −20° C. until analysis. […]
Statistical evaluations and graphics were performed with PRISM® 3.02 (GraphPad Software, Inc.). All parameters were analysed in a descriptive manner including mean and SD.

A further experiment has as its target porcine DPIV (Sus scrofa, UniProt P22411). Briefly: Determination of IC50 values against DPIV. The experiment is classed as biochemical. To be noted: Gly-Pro-pNA 0.4 mM, APN, 30° C., HEPES pH7.6, read-out: IC50. How it is done:
100 μl inhibitor stock solution was mixed with 100 μl buffer (HEPES pH7.6) and 20 μl diluted porcine DPIV and preincubated at 30° C. Reaction was started by addition of a mixture of 50 μl substrate (Gly-Pro-pNA, final concentration 0.4 mM) and 2 μl APN stock solution. Formation of the product pNA was measured at 405 nm and 30° C. over 10 min using the HTS 7000Plus plate reader (Perkin Elmer) and slopes were calculated. The final inhibitor concentrations ranged between 1 mM and 30 nM. For calculation of IC50 GraFit 4.0.13 (Erithacus Software) was used.

In a further experiment the target is porcine DP II. Kind of experiment: Inhibition of DPIV-like enzymes: dipeptidyl peptidase II. The experiment is classed as biochemical. To be noted: inhibitor 1*10^−4 M-5*10^−8 M, pH7.6. The procedure: DP II (3.4.14.2) releases N-terminal dipeptides from oligopeptides if the N-terminus is not protonated (McDonald, J. K., Ellis, S. & Reilly, T. J., 1966, J. Biol. Chem., 241, 1494-1501). Pro and Ala in P1-position are preferred residues. The enzyme activity is described as DPIV-like activity, but DP II has an acidic pH-optimum. The enzyme used was purified from porcine kidney.
100 μl inhibitor in a concentration range of 1*10^−4 M-5*10^−8 M was admixed with 100 μl buffer solution (40 mM HEPES, pH7.6, 0.015% Brij, 1 mM DTT), 50 μl lysylalanylaminomethylcoumarine solution (5 mM) and 20 μl porcine DP II (250fold diluted in buffer solution). Fluorescence measurement was performed at 30° C. and λexcitation=380 nm, λemission=465 nm for 25 min using a plate reader (HTS7000plus, Applied Biosystems, Weiterstadt, Germany). The Ki-values were calculated using Graphit 4.0.15 (Erithacus Software, Ltd., UK).

The target of another experiment is attractin (Homo sapiens, UniProt O75882). Kind of experiment: Inhibition of DPIV-like enzymes: attractin. The experiment is classed as biochemical. To be noted: inhibitor 1 mM to 30 nM, Gly-Pro-pNA 0.4 mM, APN. The procedure:
100 μl inhibitor stock solution was mixed with 100 μl buffer (HEPES pH7.6) and 20 μl diluted attractin and preincubated at 30° C. Reaction was started by addition of a mixture of 50 μl substrate (Gly-Pro-pNA, final concentration 0.4 mM) and 2 μl APN stock solution. Formation of the product pNA was measured at 405 nm and 30° C. over 10 min using the HTS 7000Plus plate reader (Perkin Elmer) and slopes were calculated. The final inhibitor concentrations ranged between 1 mM and 30 nM. For calculation of IC50 values, GraFit 4.0.13 (Erithacus Software) was used.

T1 sequence (P14740 38-767 limits assumed): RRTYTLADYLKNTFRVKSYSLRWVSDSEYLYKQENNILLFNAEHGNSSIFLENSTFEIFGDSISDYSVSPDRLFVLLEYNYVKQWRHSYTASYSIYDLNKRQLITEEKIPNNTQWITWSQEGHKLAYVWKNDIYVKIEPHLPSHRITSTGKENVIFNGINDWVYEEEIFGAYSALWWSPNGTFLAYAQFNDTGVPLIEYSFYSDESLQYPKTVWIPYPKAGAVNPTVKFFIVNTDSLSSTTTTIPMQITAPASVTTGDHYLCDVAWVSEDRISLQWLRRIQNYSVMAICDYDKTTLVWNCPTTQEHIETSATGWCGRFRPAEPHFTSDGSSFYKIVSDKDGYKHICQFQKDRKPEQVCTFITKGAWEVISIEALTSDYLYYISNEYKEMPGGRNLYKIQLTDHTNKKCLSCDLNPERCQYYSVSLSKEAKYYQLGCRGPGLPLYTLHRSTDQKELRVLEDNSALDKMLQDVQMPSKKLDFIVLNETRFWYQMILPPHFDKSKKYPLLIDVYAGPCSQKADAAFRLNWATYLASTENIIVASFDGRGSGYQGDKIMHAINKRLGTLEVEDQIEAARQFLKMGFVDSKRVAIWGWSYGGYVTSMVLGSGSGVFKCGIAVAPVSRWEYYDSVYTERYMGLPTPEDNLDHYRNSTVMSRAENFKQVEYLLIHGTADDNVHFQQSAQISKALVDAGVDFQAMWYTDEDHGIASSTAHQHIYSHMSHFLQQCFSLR
Chain of porcine DPIV (P22411 whole entry): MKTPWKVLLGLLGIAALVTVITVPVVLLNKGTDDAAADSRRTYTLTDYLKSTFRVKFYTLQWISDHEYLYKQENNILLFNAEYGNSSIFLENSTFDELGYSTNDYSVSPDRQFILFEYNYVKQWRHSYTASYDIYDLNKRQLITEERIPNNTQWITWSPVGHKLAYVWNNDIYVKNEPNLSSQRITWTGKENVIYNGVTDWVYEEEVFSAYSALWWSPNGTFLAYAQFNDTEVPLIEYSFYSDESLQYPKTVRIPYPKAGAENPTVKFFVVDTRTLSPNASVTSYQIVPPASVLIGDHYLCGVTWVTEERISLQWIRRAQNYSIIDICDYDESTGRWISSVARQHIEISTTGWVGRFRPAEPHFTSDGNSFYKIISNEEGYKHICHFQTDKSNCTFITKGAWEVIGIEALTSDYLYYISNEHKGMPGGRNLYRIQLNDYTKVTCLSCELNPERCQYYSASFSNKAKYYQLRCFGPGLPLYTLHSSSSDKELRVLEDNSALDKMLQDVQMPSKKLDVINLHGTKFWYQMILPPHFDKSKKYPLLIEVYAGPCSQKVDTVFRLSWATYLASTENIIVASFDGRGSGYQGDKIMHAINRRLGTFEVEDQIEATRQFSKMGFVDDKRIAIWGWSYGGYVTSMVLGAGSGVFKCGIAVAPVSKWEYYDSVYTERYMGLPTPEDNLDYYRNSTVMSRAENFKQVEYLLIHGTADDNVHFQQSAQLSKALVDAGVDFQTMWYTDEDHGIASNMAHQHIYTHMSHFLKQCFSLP
Chain of attractin (O75882 84-1429, species assumed): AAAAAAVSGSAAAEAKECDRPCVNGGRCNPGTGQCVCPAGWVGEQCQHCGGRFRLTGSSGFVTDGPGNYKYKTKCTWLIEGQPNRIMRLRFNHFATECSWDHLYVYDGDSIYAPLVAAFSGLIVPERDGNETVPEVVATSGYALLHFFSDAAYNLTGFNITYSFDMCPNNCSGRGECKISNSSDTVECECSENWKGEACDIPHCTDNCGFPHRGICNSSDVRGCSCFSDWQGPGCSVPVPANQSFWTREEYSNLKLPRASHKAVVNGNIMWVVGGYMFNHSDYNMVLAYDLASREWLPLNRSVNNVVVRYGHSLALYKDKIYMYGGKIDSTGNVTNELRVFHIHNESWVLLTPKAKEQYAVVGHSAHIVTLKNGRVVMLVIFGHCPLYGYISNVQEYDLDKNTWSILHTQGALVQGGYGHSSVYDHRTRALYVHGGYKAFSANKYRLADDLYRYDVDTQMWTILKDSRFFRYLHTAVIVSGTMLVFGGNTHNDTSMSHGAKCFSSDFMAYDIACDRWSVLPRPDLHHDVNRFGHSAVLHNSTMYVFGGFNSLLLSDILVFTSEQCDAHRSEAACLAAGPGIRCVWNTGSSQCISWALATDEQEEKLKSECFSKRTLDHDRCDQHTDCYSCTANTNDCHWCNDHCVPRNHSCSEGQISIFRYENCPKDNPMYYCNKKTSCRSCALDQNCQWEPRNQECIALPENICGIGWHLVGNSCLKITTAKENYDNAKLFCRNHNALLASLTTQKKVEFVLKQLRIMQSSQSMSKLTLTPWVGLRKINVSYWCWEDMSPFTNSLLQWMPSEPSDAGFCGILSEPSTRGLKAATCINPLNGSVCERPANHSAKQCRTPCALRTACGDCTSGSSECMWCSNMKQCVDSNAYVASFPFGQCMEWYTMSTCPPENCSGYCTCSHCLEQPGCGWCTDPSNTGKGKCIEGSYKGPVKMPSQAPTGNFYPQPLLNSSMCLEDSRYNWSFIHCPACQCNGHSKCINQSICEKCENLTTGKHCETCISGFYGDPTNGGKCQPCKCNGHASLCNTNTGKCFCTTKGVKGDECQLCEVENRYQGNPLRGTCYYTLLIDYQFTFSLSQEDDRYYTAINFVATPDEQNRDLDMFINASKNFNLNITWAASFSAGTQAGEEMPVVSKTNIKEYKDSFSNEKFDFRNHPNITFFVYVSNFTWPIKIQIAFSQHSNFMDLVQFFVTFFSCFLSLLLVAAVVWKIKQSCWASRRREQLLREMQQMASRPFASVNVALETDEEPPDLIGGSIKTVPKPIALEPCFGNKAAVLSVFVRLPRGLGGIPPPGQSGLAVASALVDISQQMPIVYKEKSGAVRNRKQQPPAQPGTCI

As for `Br.CC(=O)OCC(=O)[C@@H]1CCCN1C(=O)[C@@H](NC(=O)[C@H](C)N)C(C)C` [H-Ala-Val-Pro-CH2O—CO—CH3*HBr, 2-[(Acetyloxy-methyl)carbonyl]-1-N-[(L)-Alanyl-(L)-Valinyl]-(2S)-pyrrolidine hydrobromide], on plasma DPIV activity, the “In vivo DPIV-inhibition at tmax, i.v.” value was 89% and the “In vivo DPIV-inhibition at tmax, p.o.” value was determined as 87%. The IC50 on porcine DPIV was determined as 10.2 nM.

For `Br.CC(C)[C@H](NC(=O)[C@H](C)N)C(=O)N1CCC[C@H]1C(=O)COC(=O)c1ccccc1` [H-Ala-Val-Pro-CO—CH2O—CO—Ph*HBr, 2-[(Benzoyloxy-methyl)carbonyl]-1-N-[{(L)-Alanyl}-(L)-Valinyl]-(2S)-pyrrolidine hydrobromide], on plasma DPIV activity, the “In vivo DPIV-inhibition at tmax, i.v.” value was found to be 95% and the “In vivo DPIV-inhibition at tmax, p.o.” value was 68%. In addition, the “inhibition of DP II” value on porcine DP II is reported as “No inhibition”.

Turning to `Br.CC(=O)[C@@H]1CCCN1C(=O)[C@@H](NC(=O)[C@H](C)N)C(C)C` [H-Ala-Val-Pro-Me*HBr, 2-Methylcarbonyl-1-N-[(L)-Alanyl-(L)-Valinyl]-(2S)-pyrrolidine hydrobromide], the inhibition of attractin entry against attractin was “No inhibition”. Besides, the IC50 at porcine DPIV was 579 nM.
